From US20240024488A1, “COMPOUNDS AND USES THEREOF” (Foghorn Therapeutics Inc., priority 2020, published 2024) come the findings set out here.

Where only a bound is given, the exact number is not on record here.

The target of assay [1] is T1, HiBit-BRG1 fusion protein (Homo sapiens, UniProt P51532).
T1 construct: expressed in transfected cells
Briefly: HiBiT-BRG1 cell-based degradation assay (Nano-Glo HiBiT Lytic Detection, 24 h). Conditions: HeLa cell line expressing HiBit-BRG1 and LgBit; for Dmax: read-out: BRG1 HiBit Degradation Maximum (%); for DC50: read-out: BRMG1 HiBit Degradation IC50. In outline: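 Seed 5000 HeLa HiBit-BRG1/LgBit cells per well; treat 24 h; equilibrate 15 min at room temperature; add Nano-Glo HiBiT lytic reagent, shake 10 min, read luminescence. Percent degradation is scaled between DMSO and 2 μM reference degrader wells.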

Assay [2] addresses T2, HiBit-BRM fusion protein (Homo sapiens, UniProt P51531).
T2 construct: expressed in transfected cells
The experiment in a line: HiBiT-BRM cell-based degradation assay (Nano-Glo HiBiT Lytic Detection, 24 h). As to conditions: HeLa cell line expressing HiBiT-BRM; for DC50: read-out: BRM HiBit Degradation IC50. In outline: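 Stable HiBiT-BRM HeLa line; 24 h compound exposure, top final 30 μM, 3-fold, 10 pts in duplicate. Lytic HiBiT/LgBiT luminescence readout. % degradation vs DMSO (0%) and 2 μM known BRM/BRG1 degrader (100%).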

T2 sequence (P51531 whole entry, the tested form may be a part): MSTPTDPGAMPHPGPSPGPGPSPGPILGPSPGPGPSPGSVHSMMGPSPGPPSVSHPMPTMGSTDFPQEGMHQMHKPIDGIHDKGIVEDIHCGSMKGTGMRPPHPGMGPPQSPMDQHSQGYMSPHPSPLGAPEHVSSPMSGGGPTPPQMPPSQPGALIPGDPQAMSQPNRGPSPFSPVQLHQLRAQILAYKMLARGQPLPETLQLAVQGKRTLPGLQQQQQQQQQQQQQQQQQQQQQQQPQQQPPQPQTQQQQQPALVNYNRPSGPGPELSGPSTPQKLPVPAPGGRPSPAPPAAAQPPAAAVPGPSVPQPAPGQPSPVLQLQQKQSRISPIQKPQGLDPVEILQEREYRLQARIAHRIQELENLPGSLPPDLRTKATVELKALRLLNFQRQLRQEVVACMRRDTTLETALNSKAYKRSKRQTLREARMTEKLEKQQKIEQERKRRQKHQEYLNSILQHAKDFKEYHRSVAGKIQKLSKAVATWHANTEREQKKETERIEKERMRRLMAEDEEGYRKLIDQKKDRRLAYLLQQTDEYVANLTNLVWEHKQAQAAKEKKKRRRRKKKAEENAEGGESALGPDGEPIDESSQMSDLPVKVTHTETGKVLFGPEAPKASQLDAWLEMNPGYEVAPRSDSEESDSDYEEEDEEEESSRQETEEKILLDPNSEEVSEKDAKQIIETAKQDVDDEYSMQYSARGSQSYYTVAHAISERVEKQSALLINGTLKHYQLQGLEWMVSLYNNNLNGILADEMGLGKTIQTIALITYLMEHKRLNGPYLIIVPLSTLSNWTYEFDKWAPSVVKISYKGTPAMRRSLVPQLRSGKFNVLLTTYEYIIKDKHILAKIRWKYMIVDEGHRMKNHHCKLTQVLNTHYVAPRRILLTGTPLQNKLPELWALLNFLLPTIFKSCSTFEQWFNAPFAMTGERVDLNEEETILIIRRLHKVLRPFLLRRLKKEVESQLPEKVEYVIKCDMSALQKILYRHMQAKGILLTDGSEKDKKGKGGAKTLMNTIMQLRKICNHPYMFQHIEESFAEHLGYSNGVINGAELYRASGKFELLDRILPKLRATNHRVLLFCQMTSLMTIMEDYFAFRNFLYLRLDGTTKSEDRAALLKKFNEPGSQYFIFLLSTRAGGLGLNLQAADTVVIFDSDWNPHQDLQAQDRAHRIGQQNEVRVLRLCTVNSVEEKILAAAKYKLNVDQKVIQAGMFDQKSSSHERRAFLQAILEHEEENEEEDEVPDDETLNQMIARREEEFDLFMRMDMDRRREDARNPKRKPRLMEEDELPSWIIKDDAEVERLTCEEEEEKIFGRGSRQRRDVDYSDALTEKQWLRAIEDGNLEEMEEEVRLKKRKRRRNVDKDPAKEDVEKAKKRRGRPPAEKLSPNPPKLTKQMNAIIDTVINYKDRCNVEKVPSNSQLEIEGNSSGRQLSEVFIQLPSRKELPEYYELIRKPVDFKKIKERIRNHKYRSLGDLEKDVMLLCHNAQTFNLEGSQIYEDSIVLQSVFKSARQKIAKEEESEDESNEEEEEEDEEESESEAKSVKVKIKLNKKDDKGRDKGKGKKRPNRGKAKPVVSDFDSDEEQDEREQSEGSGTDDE
T1 sequence (P51532 whole entry, the tested form may be a part): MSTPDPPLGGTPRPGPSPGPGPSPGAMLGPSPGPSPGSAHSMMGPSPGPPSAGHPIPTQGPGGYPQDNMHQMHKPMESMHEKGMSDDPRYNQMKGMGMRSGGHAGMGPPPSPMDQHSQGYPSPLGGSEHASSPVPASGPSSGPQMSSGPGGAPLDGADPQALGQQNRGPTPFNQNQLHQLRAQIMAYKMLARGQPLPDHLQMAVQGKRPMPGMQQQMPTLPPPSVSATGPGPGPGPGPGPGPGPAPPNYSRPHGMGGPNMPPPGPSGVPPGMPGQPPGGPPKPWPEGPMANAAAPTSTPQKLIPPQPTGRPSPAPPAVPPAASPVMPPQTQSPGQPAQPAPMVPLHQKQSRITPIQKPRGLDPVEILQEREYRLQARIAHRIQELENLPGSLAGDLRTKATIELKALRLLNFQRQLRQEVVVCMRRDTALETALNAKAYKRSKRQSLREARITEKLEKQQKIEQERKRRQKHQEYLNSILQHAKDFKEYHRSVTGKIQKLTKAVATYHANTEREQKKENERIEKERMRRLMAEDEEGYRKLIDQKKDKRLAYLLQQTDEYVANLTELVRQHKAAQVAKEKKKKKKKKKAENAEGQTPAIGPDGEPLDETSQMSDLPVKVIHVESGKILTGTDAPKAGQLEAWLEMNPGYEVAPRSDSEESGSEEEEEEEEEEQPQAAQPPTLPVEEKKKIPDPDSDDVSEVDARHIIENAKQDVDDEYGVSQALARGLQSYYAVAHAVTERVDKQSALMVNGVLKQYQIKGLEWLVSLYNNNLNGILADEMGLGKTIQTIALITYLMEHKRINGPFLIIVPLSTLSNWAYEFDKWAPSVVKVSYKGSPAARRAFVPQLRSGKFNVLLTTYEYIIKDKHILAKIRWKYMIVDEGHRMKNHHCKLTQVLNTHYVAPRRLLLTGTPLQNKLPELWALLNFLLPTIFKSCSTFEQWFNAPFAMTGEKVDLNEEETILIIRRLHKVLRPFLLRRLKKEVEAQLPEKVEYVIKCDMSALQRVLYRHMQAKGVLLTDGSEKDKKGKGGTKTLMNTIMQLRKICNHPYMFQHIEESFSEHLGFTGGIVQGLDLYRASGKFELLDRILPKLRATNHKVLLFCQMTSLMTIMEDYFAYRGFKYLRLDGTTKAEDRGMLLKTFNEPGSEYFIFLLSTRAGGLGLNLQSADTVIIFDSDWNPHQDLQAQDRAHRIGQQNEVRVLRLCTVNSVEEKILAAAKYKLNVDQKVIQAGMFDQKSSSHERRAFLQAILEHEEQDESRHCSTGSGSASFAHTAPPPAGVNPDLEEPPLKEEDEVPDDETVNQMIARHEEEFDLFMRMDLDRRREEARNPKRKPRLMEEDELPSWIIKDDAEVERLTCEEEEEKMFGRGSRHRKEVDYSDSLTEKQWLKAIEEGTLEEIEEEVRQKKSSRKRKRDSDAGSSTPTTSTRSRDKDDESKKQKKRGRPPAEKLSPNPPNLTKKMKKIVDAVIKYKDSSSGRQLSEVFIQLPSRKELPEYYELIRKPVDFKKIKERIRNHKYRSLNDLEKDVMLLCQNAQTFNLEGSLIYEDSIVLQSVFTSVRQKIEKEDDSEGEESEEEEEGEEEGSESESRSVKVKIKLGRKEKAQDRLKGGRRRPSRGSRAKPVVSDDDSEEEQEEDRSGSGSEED

For `Cc1ncsc1-c1ccc(CNC(=O)[C@@H]2C[C@@H](O)CN2C(=O)[C@@H](NC(=O)CCCC(=O)N2CC(c3c[nH]c4nnc(-c5ccccc5O)cc34)C2)C(C)(C)C)cc1` [Compound 40, (2S,4R)-4-hydroxy-1-((S)-2-(5-(3-(3-(2-hydroxyphenyl)-7H-pyrrolo[2,3-c]pyridazin-5-yl)azetidin-1-yl)-5-oxopentanamido)-3,3-dimethylbutanoyl)-N-(4-(4-methylthiazol-5-yl)benzyl)pyrrolidine-2-carboxamide], in assay [1], the Dmax is less than 50%. Moreover, in assay [2], the “BRM HiBit Degradation Maximum (%)” value is on record as “C (“C” indicates maximum degradation < 50%)”.
Consider `Cc1ncsc1-c1ccc([C@H](C)NC(=O)[C@@H]2C[C@@H](O)CN2C(=O)[C@@H](c2onc(OCCN3CC(c4cc5cc(-c6ccccc6O)nnc5[nH]4)C3)c2Cl)C(C)C)cc1` (racemic) [Compound 266, (2S,4R)-1-((R)-2-(4-chloro-3-(2-(3-(3-(2-hydroxyphenyl)-7H-pyrrolo[2,3-c]pyridazin-6-yl)azetidin-1-yl)ethoxy)isoxazol-5-yl)-3-methylbutanoyl)-4-hydroxy-N-((S)-1-(4-(4-methylthiazol-5-yl)phenyl)ethyl)pyrrolidine-2-carboxamide], for which, in assay [1], the Dmax was more than 75% and the DC50 is more than 0.1 µM. In addition, in assay [2], the “BRM HiBit Degradation Maximum (%)” value is on record as “A (“A” indicates maximum degradation ≥ 75%)” and the DC50 was more than 0.01 µM.
Consider `Cc1ncsc1-c1ccc([C@H](C)NC(=O)[C@@H]2C[C@@H](O)CN2C(=O)[C@@H](c2cc(OCCN3C[C@@H]4[C@H](C3)[C@H]4c3cc4cc(-c5cc(F)cc(Cl)c5O)nnc4[nH]3)no2)C(C)C)cc1` (racemic) [Compound 225, (2S,4R)-1-((R)-2-(3-(2-((1R,5S,6R)-6-(3-(3-chloro-5-fluoro-2-hydroxyphenyl)-7H-pyrrolo[2,3-c]pyridazin-6-yl)-3-azabicyclo[3.1.0]hexan-3-yl)ethoxy)isoxazol-5-yl)-3-methylbutanoyl)-4-hydroxy-N-((S)-1-(4-(4-methylthiazol-5-yl)phenyl)ethyl)pyrrolidine-2-carboxamide], for which the Dmax in assay [1] was less than 50%. In assay [2], the “BRM HiBit Degradation Maximum (%)” value is listed as “A (“A” indicates maximum degradation ≥ 75%)” and the DC50 was more than 0.01 µM.
Taken in the same sequence, the figures for `Cc1ncsc1-c1ccc([C@H](C)NC(=O)[C@@H]2C[C@@H](O)CN2C(=O)[C@@H](c2cc([C@H]3CC[C@@H](c4cnc(N5CCC(c6c[nH]c7nnc(-c8ccccc8O)cc67)CC5)nc4)CC3)no2)C(C)C)cc1` (racemic) [Compound 68, (2S,4R)-4-hydroxy-N-[(1S)-1-[4-(4-methyl-1,3-thiazol-5-yl)phenyl]ethyl]-1-[(2R)-3-methyl-2-{3-[(1s,4s)-4-(2-{4-[3-(2-hydroxyphenyl)-7H-pyrrolo[2,3-c]pyridazin-5-yl]piperidin-1-yl}pyrimidin-5-yl)cyclohexyl]-1,2-oxazol-5-yl}butanoyl]pyrrolidine-2-carboxamide] were less than 50%, “A (“A” indicates maximum degradation ≥ 75%)” and more than 0.01 µM.
With `Cc1ncsc1-c1ccc(CNC(=O)[C@@H]2C[C@@H](O)CN2C(=O)[C@@H](NC(=O)CCN2CC(c3c[nH]c4nnc(-c5ccccc5O)cc34)C2)C(C)(C)C)cc1` [Compound 35, (2S,4R)-4-hydroxy-1-((S)-2-(3-(3-(3-(2-hydroxyphenyl)-7H-pyrrolo[2,3-c]pyridazin-5-yl)azetidin-1-yl)propanamido)-3,3-dimethylbutanoyl)-N-(4-(4-methylthiazol-5-yl)benzyl)pyrrolidine-2-carboxamide], the Dmax in assay [1] is less than 50%. For the same compound, the “BRM HiBit Degradation Maximum (%)” value in assay [2] is given as “C (“C” indicates maximum degradation < 50%)”.
On to `Cc1ncsc1-c1ccc([C@H](C)NC(=O)[C@@H]2C[C@@H](O)CN2C(=O)[C@@H](c2cc(OCCN3CC(C4(C)CNc5nnc(-c6ccccc6O)cc54)C3)no2)C(C)C)cc1` (mixture of isomers) [Compound 134], for which the Dmax in assay [1] is less than 50%. Moreover, the “BRM HiBit Degradation Maximum (%)” value in assay [2] is “C (“C” indicates maximum degradation < 50%)”.
For `Cc1ncsc1-c1ccc([C@H](C)NC(=O)[C@@H]2C[C@@H](O)CN2C(=O)[C@H](c2cc(CN3CCc4[nH]c5nnc(-c6ccccc6O)cc5c4C3)no2)C(C)C)cc1` (single isomer, unassigned) [Compound 135], in assay [1], the Dmax is less than 50%. For the same compound, in assay [2], the “BRM HiBit Degradation Maximum (%)” value is “C (“C” indicates maximum degradation < 50%)”.
For `Cc1ncsc1-c1ccc([C@H](C)NC(=O)[C@@H]2C[C@@H](O)CN2C(=O)[C@@H](c2cc(N3CCN(Cc4cc5cc(-c6ccccc6O)nnc5[nH]4)CC3)no2)C(C)C)cc1` (racemic) [Compound 199, (2S,4R)-4-hydroxy-1-((R)-2-(3-(4-((3-(2-hydroxyphenyl)-7H-pyrrolo[2,3-c]pyridazin-6-yl)methyl)piperazin-1-yl)isoxazol-5-yl)-3-methylbutanoyl)-N-((S)-1-(4-(4-methylthiazol-5-yl)phenyl)ethyl)pyrrolidine-2-carboxamide], the Dmax in assay [1] is less than 50%. In assay [2], the “BRM HiBit Degradation Maximum (%)” value was “A (“A” indicates maximum degradation ≥ 75%)” and the DC50 was more than 0.01 µM.
Regarding `Cc1ncsc1-c1ccc(C(C)NC(=O)C2CC(O)CN2C(=O)C(c2cc(OCCN3CC4C(C3)C4c3cc4cc(-c5cc(F)cc(F)c5O)nnc4[nH]3)no2)C(C)C)cc1` [Compound 141, (2S,4R)-1-((R)-2-(3-(2-((1R,5S,6R)-6-(3-(3,5-difluoro-2-hydroxyphenyl)-7H-pyrrolo[2,3-c]pyridazin-6-yl)-3-azabicyclo[3.1.0]hexan-3-yl)ethoxy)isoxazol-5-yl)-3-methylbutanoyl)-4-hydroxy-N-((S)-1-(4-(4-methylthiazol-5-yl)phenyl)ethyl)pyrrolidine-2-carboxamide], the Dmax in assay [1] was less than 50%. In assay [2], the “BRM HiBit Degradation Maximum (%)” value is “A (“A” indicates maximum degradation ≥ 75%)” and the DC50 is more than 0.01 µM.
Consider `Cc1ncsc1-c1ccc([C@H](C)NC(=O)[C@@H]2C[C@@H](O)CN2C(=O)[C@@H](c2cc(OCCN3CCC(c4[nH]c5nnc(-c6ccccc6O)cc5c4C)CC3)no2)C(C)C)cc1` (racemic) [Compound 270, (2S,4R)-4-hydroxy-1-[(2R)-2-[3-(2-{4-[3-(2-hydroxyphenyl)-5-methyl-7H-pyrrolo[2,3-c]pyridazin-6-yl]piperidin-1-yl}ethoxy)-1,2-oxazol-5-yl]-3-methylbutanoyl]-N-[(1S)-1-[4-(4-methyl-1,3-thiazol-5-yl)phenyl]ethyl]pyrrolidine-2-carboxamide], for which, in assay [1], the Dmax is more than 75% and the DC50 is more than 0.01 µM. In addition, in assay [2], the “BRM HiBit Degradation Maximum (%)” value is reported as “A (“A” indicates maximum degradation ≥ 75%)” and the DC50 was less than 0.01 µM.
Taken in the same sequence, the figures for `Cc1ncsc1-c1ccc([C@H](C)NC(=O)[C@@H]2C[C@@H](O)CN2C(=O)[C@@H](c2cc(N3CCC(C(=O)N[C@@H]4CCc5[nH]c6nnc(-c7ccccc7O)cc6c5C4)CC3)no2)C(C)C)cc1` (single isomer, unassigned) [Compound 146] were more than 75%, more than 0.1 µM, “A (“A” indicates maximum degradation ≥ 75%)” and more than 0.01 µM.
Consider `O=C1CCC(N2C(=O)c3cccc(OCCCCCCC(=O)N4CC(c5cc6cc(-c7ccccc7O)nnc6[nH]5)C4)c3C2=O)C(=O)N1` (stereo not drawn) [Compound 31, 2-(2,6-dioxopiperidin-3-yl)-4-((7-(3-(3-(2-hydroxyphenyl)-7H-pyrrolo[2,3-c]pyridazin-6-yl)azetidin-1-yl)-7-oxoheptyl)oxy)isoindoline-1,3-dione], for which the Dmax in assay [1] was less than 50%. The “BRM HiBit Degradation Maximum (%)” value in assay [2] is recorded as “C (“C” indicates maximum degradation < 50%)”.
Consider `Cc1ncsc1-c1ccc([C@H](C)NC(=O)[C@@H]2C[C@@H](O)CN2C(=O)[C@@H](c2cc(C3CN(Cc4cc5cc(-c6ccccc6O)nnc5[nH]4)C3)no2)C(C)C)cc1` (racemic) [Compound 138, (2S,4R)-4-hydroxy-1-((R)-2-(3-(1-((3-(2-hydroxyphenyl)-7H-pyrrolo[2,3-c]pyridazin-6-yl)methyl)azetidin-3-yl)isoxazol-5-yl)-3-methylbutanoyl)-N-((S)-1-(4-(4-methylthiazol-5-yl)phenyl)ethyl)pyrrolidine-2-carboxamide], for which the Dmax in assay [1] is less than 50%. In addition, in assay [2], the “BRM HiBit Degradation Maximum (%)” value is on record as “A (“A” indicates maximum degradation ≥ 75%)” and the DC50 is more than 0.01 µM.
Take `Cc1ncsc1-c1ccc([C@H](C)NC(=O)[C@@H]2C[C@@H](O)CN2C(=O)[C@@H](c2cc(OCCNCCC(=O)N3CC(c4c[nH]c5nnc(-c6ccccc6O)cc45)C3)no2)C(C)C)cc1` (racemic) [Compound 230, (2S,4R)-4-hydroxy-1-((R)-2-(3-(2-((3-(3-(3-(2-hydroxyphenyl)-7H-pyrrolo[2,3-c]pyridazin-5-yl)azetidin-1-yl)-3-oxopropyl)amino)ethoxy)isoxazol-5-yl)-3-methylbutanoyl)-N-((S)-1-(4-(4-methylthiazol-5-yl)phenyl)ethyl)pyrrolidine-2-carboxamide]: in assay [1], the Dmax is less than 50%. In assay [2], the “BRM HiBit Degradation Maximum (%)” value is on record as “B (“B” indicates maximum degradation ≥ 50%)” and the DC50 is more than 1 µM.
`O=C1CCC(N2C(=O)c3ccc(NCCOCCOCCC(=O)N4CC(c5cc6cc(-c7ccccc7O)nnc6[nH]5)C4)cc3C2=O)C(=O)N1` (stereo not drawn) [Compound 29, 2-(2,6-dioxopiperidin-3-yl)-5-((2-(2-(3-(3-(3-(2-hydroxyphenyl)-7H-pyrrolo[2,3-c]pyridazin-6-yl)azetidin-1-yl)-3-oxopropoxy)ethoxy)ethyl)amino)isoindoline-1,3-dione]: in assay [1], the Dmax is less than 50%. Further, the “BRM HiBit Degradation Maximum (%)” value in assay [2] is on record as “C (“C” indicates maximum degradation < 50%)”.
